Marks after values point to notes of the source that are not given here.
Tests used:
SERT = SERT (Homo sapiens, UniProt P31645); assay: fluorescence-based serotonin uptake assay (Tsuruda et al. 2010); assay type: cell-based; conditions: serotonin reuptake inhibition, fluorescence-based assay (data indicated by an asterisk); for IC50: read-out: SERT pIC50 (converted)
NET = NET (Homo sapiens, UniProt P23975); assay: fluorescence-based norepinephrine uptake assay (Tsuruda et al. 2010); assay type: cell-based; conditions: norepinephrine reuptake inhibition, fluorescence-based assay (data indicated by an asterisk); for IC50: read-out: NET pIC50 (converted)
NET, sequence (P23975 whole entry): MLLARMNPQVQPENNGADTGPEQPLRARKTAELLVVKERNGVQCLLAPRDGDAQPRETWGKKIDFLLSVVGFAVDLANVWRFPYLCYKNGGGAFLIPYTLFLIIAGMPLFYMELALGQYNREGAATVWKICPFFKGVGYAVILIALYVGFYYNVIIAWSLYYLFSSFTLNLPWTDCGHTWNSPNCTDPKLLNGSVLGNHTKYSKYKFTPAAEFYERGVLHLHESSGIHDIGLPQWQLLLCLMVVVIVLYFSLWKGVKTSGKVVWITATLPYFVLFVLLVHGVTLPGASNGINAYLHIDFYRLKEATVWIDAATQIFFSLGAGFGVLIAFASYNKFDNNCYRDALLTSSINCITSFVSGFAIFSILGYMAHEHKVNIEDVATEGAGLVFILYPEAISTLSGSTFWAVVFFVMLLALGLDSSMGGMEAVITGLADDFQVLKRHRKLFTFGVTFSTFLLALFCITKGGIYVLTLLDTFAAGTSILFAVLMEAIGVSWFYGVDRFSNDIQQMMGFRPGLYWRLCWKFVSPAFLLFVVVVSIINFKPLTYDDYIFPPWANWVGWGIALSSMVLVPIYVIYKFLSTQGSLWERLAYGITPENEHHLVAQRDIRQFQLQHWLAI

SERT, sequence (P31645 whole entry, species assumed): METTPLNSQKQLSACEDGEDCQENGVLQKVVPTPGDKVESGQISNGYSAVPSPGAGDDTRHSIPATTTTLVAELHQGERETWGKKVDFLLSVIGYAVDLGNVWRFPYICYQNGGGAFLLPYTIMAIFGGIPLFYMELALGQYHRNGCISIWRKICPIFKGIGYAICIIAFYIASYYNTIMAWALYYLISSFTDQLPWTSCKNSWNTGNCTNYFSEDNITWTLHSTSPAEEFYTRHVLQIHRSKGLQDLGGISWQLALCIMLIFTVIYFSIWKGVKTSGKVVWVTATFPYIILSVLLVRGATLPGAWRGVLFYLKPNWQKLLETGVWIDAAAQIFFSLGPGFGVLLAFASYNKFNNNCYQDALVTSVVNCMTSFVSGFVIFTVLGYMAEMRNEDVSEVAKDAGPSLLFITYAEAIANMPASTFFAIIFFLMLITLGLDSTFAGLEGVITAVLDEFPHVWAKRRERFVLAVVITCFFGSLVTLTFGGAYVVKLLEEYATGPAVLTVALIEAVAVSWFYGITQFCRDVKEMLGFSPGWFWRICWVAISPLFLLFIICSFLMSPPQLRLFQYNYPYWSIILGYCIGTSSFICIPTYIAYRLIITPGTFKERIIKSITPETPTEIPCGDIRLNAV

| Structure (SMILES) | IC50 (SERT) | IC50 (NET) | SERT pIC50 (SERT) | NET pIC50 (NET) |
| --- | --- | --- | --- | --- |
| OC[C@@H](Oc1cccc(Cl)c1Cl)[C@@H]1CCNC1 (stereo in doubt) [Example 2-2, (R)-2-(2,3-Dichlorophenoxy)-2-(S)-pyrrolidin-3-yl-ethanol] | ≤ 100 nM | ≤ 10 nM | – | – |
| CCOC[C@H](Oc1cccc(F)c1F)[C@H]1CCNC1 [Example 7-11, (S)-3-[(R)-1-(2,3-Difluorophenoxy)-2-ethoxyethyl]pyrrolidine] | ≤ 100 nM | ≤ 10 nM | – | – |
| CCOC[C@H](Oc1ccc(Cl)cc1C)[C@H]1CCNC1 [Example 7-22, (S)-3-[(R)-1-(4-Chloro-2-methylphenoxy)-2-ethoxyethyl]pyrrolidine] | ≤ 10 nM | ≤ 10 nM | – | – |
| CCOC[C@H](Oc1ccc(Cl)c(Cl)c1F)[C@H]1CCNC1 [Example 7-29, (S)-3-[(R)-1-(3,4-Dichloro-2-fluorophenoxy)-2-ethoxyethyl]pyrrolidine] | ≤ 10 nM | ≤ 10 nM | – | – |
| CCOC[C@H](Oc1cccc(F)c1Cl)[C@H]1CCNC1 [Example 7-9, (S)-3-[(R)-1-(2-Chloro-3-fluorophenoxy)-2-ethoxyethyl]pyrrolidine] | ≤ 100 nM | ≤ 10 nM | – | – |
| CCOC[C@H](Oc1ccc(Cl)cc1C(F)(F)F)[C@H]1CCNC1 [Example 7-23, (S)-3-[(R)-1-(4-Chloro-2-trifluoromethylphenoxy)-2-ethoxyethyl]pyrrolidine] | ≤ 10 nM | ≤ 10 nM | – | – |
| CCOC[C@H](Oc1cccc(C(F)(F)F)c1)[C@H]1CCNC1 [Example 7-2, (S)-3-[(R)-2-Ethoxy-1-(3-trifluoromethylphenoxy)ethyl]pyrrolidine] | ≤ 100 nM | ≤ 100 nM | – | – |
| CCOC[C@H](Oc1ccc(F)cc1)[C@H]1CCNC1 [Example 7-5, (S)-3-[(R)-2-Ethoxy-1-(4-fluorophenoxy)ethyl]pyrrolidine] | ≤ 100 nM | ≤ 100 nM | – | – |
| CCOC[C@H](Oc1ccc(C(F)(F)F)cc1)[C@H]1CCNC1 [Example 7-6, (S)-3-[(R)-2-Ethoxy-1-(4-trifluoromethylphenoxy)ethyl]pyrrolidine] | ≤ 10 nM | ≤ 100 nM | – | – |
| CSC[C@H](Oc1cccc(C(F)(F)F)c1)[C@H]1CCNC1.O=C(O)C(F)(F)F [Example 15-9] | – | – | ≧7.0* | ≧7.0* |
| CCSC[C@H](Oc1ccc(Cl)c(Cl)c1)[C@H]1CCNC1.O=C(O)C(F)(F)F [Example 17-9] | – | – | ≧8.0* | ≧8.0* |
| CCOC[C@H](Oc1cc(F)cc(Cl)c1)[C@H]1CCNC1 [Example 7-28, (S)-3-[(R)-1-(3-Chloro-5-fluorophenoxy)-2-ethoxyethyl]pyrrolidine] | ≤ 100 nM | ≤ 10 nM | – | – |
| Cc1cc(Cl)ccc1O[C@H](CO)[C@@H]1CCNC1 (stereo in doubt) [Example 1, (R)-2-(4-Chloro-2-methylphenoxy)-2-(S)-pyrrolidin-3-yl-ethanol] | ≤ 10 nM | ≤ 10 nM | – | – |
| Cc1cc(Cl)ccc1O[C@@H](COCc1ccccc1)[C@H]1CCNC1.O=C(O)C(F)(F)F [Prep 3] | – | – | ≧8.0* | ≧8.0* |

Continued, in another order:

| IC50 (SERT) | IC50 (NET) | Structure (SMILES) | SERT pIC50 (SERT) | NET pIC50 (NET) |
| --- | --- | --- | --- | --- |
| ≤ 100 nM | ≤ 100 nM | CC(C)OC[C@H](Oc1cccc(C(F)(F)F)c1)[C@H]1CCNC1 [Example 9-4, (S)-3-[(R)-2-Isopropoxy-1-(3-trifluoromethylphenoxy)ethyl]pyrrolidine] | – | – |
| ≤ 100 nM | ≤ 10 nM | CC(C)OCC(Oc1cccc(Cl)c1C(F)(F)F)C1CCNC1 [Example 9-20, (S)-3-[(R)-1-(3-Chloro-2-trifluoromethyl-phenoxy)-2-isopropoxycthyl]pyrrolidine] | – | – |
| ≤ 10 nM | ≤ 10 nM | CC(C)OC[C@H](Oc1cccc(F)c1Cl)[C@H]1CCNC1 [Example 9-12, (S)-3-[(R)-1-(2-Chloro-3-fluorophenoxy)-2-isopropoxyethyl]pyrrolidine] | – | – |
| ≤ 10 nM | ≤ 10 nM | CC(C)OC[C@@H](Oc1cccc(Cl)c1Cl)[C@H]1CCNC1 [Example 9-8, (S)-3-[(S)-1-(2,3-Dichlorophenoxy)-2-isopropoxyethyl]pyrrolidine] | – | – |
